From patent publication US10428044B2, “3-amino-1,5,6,7-tetrahydro-4H-indol-4-ones” (Bayer Pharma Aktiengesellschaft, priority 2014, dated 2019) come the findings set out here.

Structures are written as SMILES. “And” between values parts separate entries of the source, which are not always exact repeats. Equal values may be shown once.

In this experiment the target is (recombinant) catalytic domain of human Bub1 (amino acids 704-1085) (Homo sapiens (Human), UniProt O43683). The experiment in a line: Bub1 kinase assay (TR-FRET). It counts as biochemical. The following applies: ATP 10 μM final, peptide substrate 1 μM final, 60 min at 22° C., read-out: Biological Assay: Bub1 kinase assay median IC50. As to the method: Examples were tested in selected biological assays one or more times. When tested more than once, data are reported as either average values or as median values, wherein • the average value, also referred to as the arithmetic mean value, represents the sum of the values obtained divided by the number of times tested, and • the median value represents the middle number of the group of values when ranked in ascending or descending order. If the number of values in the data set is odd, the median is the middle value. If the number of values in the data set is even, the median is the arithmetic mean of the two middle values.
Sequence of (recombinant) catalytic domain of human Bub1 (amino acids 704-1085) (O43683 704-1085): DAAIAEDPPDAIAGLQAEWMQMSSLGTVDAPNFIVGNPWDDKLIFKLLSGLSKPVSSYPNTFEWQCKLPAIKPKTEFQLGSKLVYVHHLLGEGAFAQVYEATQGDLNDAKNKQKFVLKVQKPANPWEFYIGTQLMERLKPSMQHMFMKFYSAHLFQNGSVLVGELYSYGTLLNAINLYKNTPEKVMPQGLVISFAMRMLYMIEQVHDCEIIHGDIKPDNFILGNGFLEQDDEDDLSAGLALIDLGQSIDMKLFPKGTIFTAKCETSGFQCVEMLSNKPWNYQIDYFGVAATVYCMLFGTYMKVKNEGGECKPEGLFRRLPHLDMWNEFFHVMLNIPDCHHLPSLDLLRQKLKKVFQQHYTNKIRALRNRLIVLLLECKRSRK
To this end, 100-fold concentrated compound solutions (in DMSO) were previously prepared by serial dilution (1:3.4) of 2 mM stocks in a clear low volume 384-well source microtiter plate (Greiner Bio-One, Frickenhausen, Germany), from which 50 nl of compounds were transferred into a black low volume test microtiter plate from the same supplier. […] The resulting mixture (5 μL final volume) was incubated at 22° C. during 60 min., and the reaction was stopped by the addition of 5 μL of an aqueous EDTA-solution (50 mM EDTA, in 100 mM HEPES pH 7.5 and 0.2% (w/v) bovine serum albumin) which also contained the TR-FRET detection reagents (0.2 μM streptavidin-XL665 [Cisbio Bioassays, Codolet, France] and 1 nM anti-phosho-Serine antibody [Merck Millipore, cat. #35-002] and 0.4 nM LANCE EU-W1024 labeled anti-mouse IgG antibody [Perkin-Elmer, product no. AD0077, alternatively a Terbium-cryptate-labeled anti-mouse IgG antibody from Cisbio Bioassays can be used]). The stopped reaction mixture was further incubated 1 h at 22° C. in order to allow the formation of complexes between peptides and detection reagents. Subsequently, the amount of product was evaluated by measurement of the resonance energy transfer from the Eu-chelate-antibody complex recognizing the Phosphoserine residue to the streptavidin-XL665 bound to the biotin moiety of the peptide. […] The data were normalised using two sets of control wells for high- (=enzyme reaction without inhibitor=0%=Minimum inhibition) and low- (=all assay components without enzyme=100%=Maximum inhibition) Bub1 activity. IC50 values were calculated by fitting the normalized inhibition data to a 4-parameter logistic equation (Minimum, Maximum, IC50, Hill; Y=Max+(Min−Max)/(1+(X/IC50)Hill)).
(In general: Time-resolved FRET reads energy transfer from a long-lived donor to a nearby acceptor.)
On to `O=C1CCCc2[nH]c(-c3ccnc(NC(=O)C4C[C@@H]4F)c3)c(Nc3ccccc3)c21` (mixture of isomers) [Example 249, rel-(R,S/S,R)-2-fluoro-N-{4-[4-oxo-3-(phenylamino)-4,5,6,7-tetrahydro-1H-indol-2-yl]pyridin-2-yl}cyclopropanecarboxamide], for which the IC50 is 16.4 nM and 7.55 nM.
The result for `O=C1CCCc2[nH]c(-c3ccnc(NC(=O)C4C[C@H]4F)c3)c(Nc3ccccc3)c21` (mixture of isomers) [Example 252, rel-(S,S/R,R)-2-fluoro-N-{4-[4-oxo-3-(phenylamino)-4,5,6,7-tetrahydro-1H-indol-2-yl]pyridin-2-yl}cyclopropanecarboxamide] reads 16.6 nM; that for `CC1(C)CC(=O)c2c([nH]c(-c3ccnc(NC(=O)[C@@H]4C[C@H]4F)c3)c2Nc2ccccc2)C1` (racemic) [Example 254, (S,R)—N-{4-[6,6-dimethyl-4-oxo-3-(phenylamino)-4,5,6,7-tetrahydro-1H-indol-2-yl]pyridin-2-yl}-2-fluorocyclopropanecarboxamide], 6.34 nM; that for `CC1(C)CC(=O)c2c([nH]c(-c3ccnc(NC(=O)[C@H]4C[C@H]4F)c3)c2Nc2ccccc2)C1` (racemic) [Example 257, (R,R)—N-{4-[6,6-dimethyl-4-oxo-3-(phenylamino)-4,5,6,7-tetrahydro-1H-indol-2-yl]pyridin-2-yl}-2-fluorocyclopropanecarboxamide], 59.7 nM.
As for `O=C1CCCc2[nH]c(-c3ccnc(NC(=O)C4CC4(F)F)c3)c(Nc3ccccc3)c21` (racemic) [Example 260, 2,2-difluoro-N-{4-[4-oxo-3-(phenylamino)-4,5,6,7-tetrahydro-1H-indol-2-yl]pyridin-2-yl}cyclopropanecarboxamide], the IC50 is 23.6 nM.
Regarding `O=C1CCCc2[nH]c(-c3ccnc(NC(=O)C4CC4C(F)(F)F)c3)c(Nc3ccccc3)c21` (racemic) [Example 262, N-{4-[4-oxo-3-(phenylamino)-4,5,6,7-tetrahydro-1H-indol-2-yl]pyridin-2-yl}-2-(trifluoromethyl)cyclopropanecarboxamide], the IC50 is 32.6 nM.
The result for `O=C1CC2(CC2)Cc2[nH]c(-c3ccnc(NC(=O)[C@H]4C[C@@H]4F)c3)c(Nc3ccccc3)c21` (relative stereo) [Example 466, rel-(R,S)-2-fluoro-N-{4-[4′-oxo-3′-(phenylamino)-1′,4′,5′,7′-tetrahydrospiro[cyclopropane-1,6′-indol]-2′-yl]pyridin-2-yl}cyclopropanecarboxamide] reads 5.03 nM; that for `CC(C)C1CC(=O)c2c([nH]c(-c3ccncc3)c2Nc2ccccc2)C1` (single isomer, unassigned) [Example 17, 3-(phenylamino)-6-(propan-2-yl)-2-(pyridin-4-yl)-1,5,6,7-tetrahydro-4H-indol-4-one], 4.04 nM.
The result for `CC(C)C1CC(=O)c2c([nH]c(-c3ccncc3)c2Nc2ccccc2)C1` (single isomer, unassigned) [Example 18, 3-(phenylamino)-6-(propan-2-yl)-2-(pyridin-4-yl)-1,5,6,7-tetrahydro-4H-indol-4-one] reads 5.09 nM.
On to `O=C1CC(C(F)(F)F)Cc2[nH]c(-c3ccncc3)c(Nc3ccccc3)c21` (single isomer, unassigned) [Example 440, 3-(phenylamino)-2-(pyridin-4-yl)-6-(trifluoromethyl)-1,5,6,7-tetrahydro-4H-indol-4-one], for which the IC50 came out at 12.9 nM.
For the molecule `O=C1CC(C(F)(F)F)Cc2[nH]c(-c3ccncc3)c(Nc3ccccc3)c21` (single isomer, unassigned) [Example 441, 3-(phenylamino)-2-(pyridin-4-yl)-6-(trifluoromethyl)-1,5,6,7-tetrahydro-4H-indol-4-one], the IC50 turned out to be 5.72 nM.
With `CC(C)[C@H]1CC(=O)c2c([nH]c(-c3ccnc(N)c3)c2Nc2ccc(F)cc2)C1` (stereo in doubt) [Example 167, 2-(2-aminopyridin-4-yl)-3-[(4-fluorophenyl)amino]-6-(propan-2-yl)-1,5,6,7-tetrahydro-4H-indol-4-one] the figure was 53.1 nM; with `CC1(C)CC(=O)c2c([nH]c(-c3ccncc3)c2Nc2ccccc2)C1` [Example 1, 6,6-dimethyl-3-(phenylamino)-2-(pyridin-4-yl)-1,5,6,7-tetrahydro-4H-indol-4-one], 6.25 nM.
Turning to `CC1(C)CC(=O)c2c([nH]c(-c3ccncc3Cl)c2Nc2ccccc2)C1` [Example 2, 2-(3-chloropyridin-4-yl)-6,6-dimethyl-3-(phenylamino)-1,5,6,7-tetrahydro-4H-indol-4-one], the IC50 was determined as 8.98 nM.
With `Cc1cccc(Nc2c(-c3ccncc3)[nH]c3c2C(=O)CC(C)(C)C3)c1` [Example 3, 6,6-dimethyl-3-[(3-methylphenyl)amino]-2-(pyridin-4-yl)-1,5,6,7-tetrahydro-4H-indol-4-one] the figure was 37.8 nM; with `CC1(C)CC(=O)c2c([nH]c(-c3ccncc3)c2Nc2cccc(Cl)c2)C1` [Example 4, 6,6-dimethyl-3-[(3-chlorophenyl)amino]-2-(pyridin-4-yl)-1,5,6,7-tetrahydro-4H-indol-4-one], 15.9 nM; with `CC1(C)CC(=O)c2c([nH]c(-c3ccncn3)c2Nc2ccccc2)C1` [Example 5, 6,6-dimethyl-3-(phenylamino)-2-(pyrimidin-4-yl)-1,5,6,7-tetrahydro-4H-indol-4-one], 25.2 nM.
Turning to `CC(C)C1CC(=O)c2c([nH]c(-c3ccncc3)c2Nc2ccccc2)C1` (centres unmarked) [Example 7, 3-(phenylamino)-6-(propan-2-yl)-2-(pyridin-4-yl)-1,5,6,7-tetrahydro-4H-indol-4-one], the IC50 was determined as 5.57 nM.
The result for `O=C1CC(c2ccccc2)Cc2[nH]c(-c3ccncc3)c(Nc3ccccc3)c21` (centres unmarked) [Example 8, 6-Phenyl-3-phenylamino-2-(pyridin-4-yl)-1,5,6,7-tetrahydroindol-4-one] reads 22.1 nM; that for `O=C1CCCc2[nH]c(-c3ccncc3)c(Nc3ccccc3)c21` [Example 9, 3-(phenylamino)-2-(pyridin-4-yl)-1,5,6,7-tetrahydro-4H-indol-4-one], 12.1 nM.
With `CC1(C)CC(=O)c2c([nH]c(-c3ccncc3)c2Nc2ccc(Cl)cc2)C1` [Example 10, 3-[(4-chlorophenyl)amino]-6,6-dimethyl-2-(pyridin-4-yl)-1,5,6,7-tetrahydro-4H-indol-4-one] the figure was 12.5 nM; with `CC1(C)CC(=O)c2c([nH]c(-c3ccncc3)c2Nc2ccc(F)cc2)C1` [Example 11, 3-[(4-fluorophenyl)amino]-6,6-dimethyl-2-(pyridin-4-yl)-1,5,6,7-tetrahydro-4H-indol-4-one], 16.5 nM.
The result for `CC1(C)CC(=O)c2c([nH]c(-c3ccncc3)c2Nc2cccc(Br)c2)C1` [Example 12, 3-[(3-bromophenyl)amino]-6,6-dimethyl-2-(pyridin-4-yl)-1,5,6,7-tetrahydro-4H-indol-4-one] reads 15.4 nM; that for `O=C1CC2(CCC2)Cc2[nH]c(-c3ccncc3)c(Nc3ccccc3)c21` [Example 13, 3′-(phenylamino)-2′-(pyridin-4-yl)-1′,7′-dihydrospiro[cyclobutane-1,6′-indol]-4′(5′H)-one], 6.55 nM.
Take `Cc1cc(F)cc(Nc2c(-c3ccncc3)[nH]c3c2C(=O)CC(C)(C)C3)c1` [Example 14, 3-[(3-fluoro-5-methylphenyl)amino]-6,6-dimethyl-2-(pyridin-4-yl)-1,5,6,7-tetrahydro-4H-indol-4-one]: the IC50 was found to be 10.8 nM.
Turning to `CCc1cccc(Nc2c(-c3ccncc3)[nH]c3c2C(=O)CC(C)(C)C3)c1` [Example 15, 3-[(3-ethylphenyl)amino]-6,6-dimethyl-2-(pyridin-4-yl)-1,5,6,7-tetrahydro-4H-indol-4-one], the IC50 is 23.6 nM.
In the case of `CC1(C)CC(=O)c2c([nH]c(-c3ccncc3)c2Nc2cccc([N+](=O)[O-])c2)C1` [Example 16, 6,6-dimethyl-3-[(3-nitrophenyl)amino]-2-(pyridin-4-yl)-1,5,6,7-tetrahydro-4H-indol-4-one], the IC50 came out at 27.2 nM.
With `CC1(C)CC(=O)c2c([nH]c(-c3ccncc3)c2Nc2cc(F)cc(Cl)c2)C1` [Example 19, 3-[(3-chloro-5-fluorophenyl)amino]-6,6-dimethyl-2-(pyridin-4-yl)-1,5,6,7-tetrahydro-4H-indol-4-one] the figure was 19.5 nM.
The result for `O=C1CC(C(F)(F)F)Cc2[nH]c(-c3ccncc3)c(Nc3ccccc3)c21` (centres unmarked) [Example 20, 3-(phenylamino)-2-(pyridin-4-yl)-6-(trifluoromethyl)-1,5,6,7-tetrahydro-4H-indol-4-one] reads 9.33 nM.

One may read the IC50 as the concentration that inhibits the measured activity by half.
